Test results from patent US6251903A, “Alkyl, azido, alkoxy, and fluoro-substituted and fused quinoxalinediones and the use thereof as glycine receptor antagonist” (priority 2000, dated 2001).
Where two headings read alike, the source gives them in different places. Values belong to the compound of their own block, whether it stands above or below them.

Legend:
[1] = system: glycine binding site of the NMDA receptor; details: literature, cited from earlier work
[2] = system: mice; experiment: anticonvulsant activity in maximum electroshock seizure (MES) experiments in mice; format: in vivo, male Swiss/Webster mice; details: for ED50 as an anticonvulsant in the MES experiment in mice: route not stated; for ED100 / ED50: Mus musculus; for ED50: read-out: ED50 (MES)
Procedure: The seizure stimulus parameters were: 50 mA, 60 Hz, rectangular pulse, width 0.8 msec, duration 200 msec. Tonic hind limb extension observed after application of the electrical stimulus was recorded as occurrence of seizure. The drug was applied i.v. as an aqueous Tris (Tromethamine) solution.

[3] = target: glycine binding site (Rattus norvegicus, UniProt P35439); experiment: affinity for the glycine binding site / glycine/NMDA receptor (Ki; method not stated)
Description: (§1) The binding affinities of quinoxaline-2,3-diones at NMDA receptor glycine sites also were estimated by electrophysiological assays with either cloned rat NMDA receptors expressed in Xenopus oocytes, or non-NMDA receptors expressed in oocytes by whole rat brain poly(A)^+ RNA. […] For NMDA receptors Ki values were approximated by averaging values at three subtype combinations (NR1A/NR2A, NR1A/NR2B, and NR1A/NR2C).

[4] = target: NMDA receptor glycine sites; experiment: electrophysiological assay, cloned rat NMDA receptors expressed in Xenopus oocytes; format: cell-based; details: Table II; from electrophysiology using Xenopus oocytes
Description: as §1

SMILES: O=c1[nH]c2cc(Cl)c(Cl)cc2[nH]c1=O [6,7-dichloro-1,4-dihydroquinoxaline-2,3-dione]
- glycine site antagonism or affinity (words) [1]: competitive antagonist specific to the strychnine-insensitive [^3 H] glycine binding sites
- glycine site antagonism or affinity (words) ([1]; listed as drawing 6): competitively displaced the strychnine-insensitive binding of [^3 H]glycine, without affecting the other binding sites on the NMDA receptor complex

SMILES: O=c1[nH]c2cc(Cl)c(Cl)c([N+](=O)[O-])c2[nH]c1=O [6,7-dichloro-5-nitro-1,4-dihydroquinoxaline-2,3-dione, reference compound]
- ED50 (MES) ([2]; Table IV, i.v.): 4 to 5 mg/kg
- ED100 (MES) ([2]; Table IV, i.v.): 7 to 10 mg/kg
- IV peak of action ([2]; Table IV, i.v.): 5 min
- % protection after 60 min. ([2]; i.v., 10 mg/kg): 55%
- ED50 as an anticonvulsant in the MES experiment in mice [2]: 4 to 5 mg/kg

SMILES: O=c1[nH]c2ccc(C(F)(F)F)cc2[nH]c1=O [CF3, reference compound]
- Ki ([3]; Table I, read-out: Ki): 360 nM

SMILES: N#Cc1ccc2nc(O)c(O)nc2c1 [CN, reference compound]
- Ki ([3]; Table I, read-out: Ki): 4890 nM

SMILES: CCc1cc(Br)cc2[nH]c(=O)c(=O)[nH]c12 [Et H Br H, 7-Bromo-5-ethyl-1,4-dihydroquinoxaline-2,3-dione]
- Ki [4]: 900 nM

SMILES: Cc1cc2[nH]c(=O)c(=O)n(CC(=O)O)c2cc1C [Example 4a]
- glycine site antagonism or affinity (words) [1]: functional antagonism

SMILES: Oc1nc2cc(F)c(Cl)c(F)c2nc1O [F Cl F H, 6-Chloro-5,7-difluoro-1,4-dihydroquinoxaline-2,3-dione]
- Ki [3]: 1000 nM
- ED50 ([2]; iv, Table III, i.v. injection): 10 mg/kg

SMILES: O=c1[nH]c2ccc(F)cc2[nH]c1=O [F, reference compound]
- Ki ([3]; Table I, read-out: Ki): 2880 nM

SMILES: O=c1[nH]c2cc3c(cc2[nH]c1=O)CCC3 [H CH2 CH2 CH2 H, Cyclopento[g]-1,4-dihydroquinoxaline-2,3-dione]
- Ki [4]: 6300 nM

SMILES: O=c1[nH]c2cc3ccccc3cc2[nH]c1=O [H CH=CHCH=CH H, 1,4-dihydrobenzo[g]quinoxaline-2,3-dione]
- Ki [4]: 11000 nM

SMILES: O=c1[nH]c2cc(F)c(F)cc2[nH]c1=O [H F F H, 6,7-Difluoro-1,4-dihydro-2,3-quinoxalinedione]
- Ki ([3]; Table III, read-out: Ki): 8200 nM
- ED50 ([2]; iv, Table III, i.v. injection): 15 mg/kg

SMILES: Cc1cc2[nH]c(=O)c(=O)[nH]c2cc1C [H Me Me H, 6,7-Dimethyl-1,4-dihydroquinoxaline-2,3-dione]
- Ki [4]: 980 nM

SMILES: Oc1nc2ccccc2nc1O [H, reference compound]
- Ki ([3]; Table I, read-out: Ki): 2470 nM

SMILES: Cc1cc(C)c2[nH]c(=O)c(=O)[nH]c2c1 [Me H Me H, 5,7-Dimethyl-1,4-dihydro-2,3-quinoxalinedione]
- Ki [4]: 1700 nM

SMILES: Nc1ccc2[nH]c(=O)c(=O)[nH]c2c1 [NH2, reference compound]
- Ki ([3]; Table I): inactive

SMILES: O=c1[nH]c2cc(F)c(Br)c([N+](=O)[O-])c2[nH]c1=O [NO2 Br F H, 6-Bromo-7-Fluoro-5-nitro-1,4-dihydroquinoxaline-2,3-dione]
- Ki ([3]; Table III, read-out: Ki): 43 nM
- ED50 ([2]; iv, Table III, i.v. injection): 3.5 mg/kg

SMILES: O=c1[nH]c2cc3c(c([N+](=O)[O-])c2[nH]c1=O)CCC3 [NO2 CH2 CH2 CH2 H, 5-Nitrocyclopento[g]-1,4-dihydroquinoxaline-2,3-dione]
- Ki [4]: 800 nM

SMILES: Cc1cc2[nH]c(=O)c(=O)[nH]c2c([N+](=O)[O-])c1Cl [NO2 Cl Me H, 6-Chloro-7-methyl-5-nitro-1,4-dihydroquinoxaline-2,3-dione]
- Ki [4]: 27 nM
- Ki [3]: 27 nM
- ED50 as an anticonvulsant in the MES experiment in mice [2]: 2 mg/kg

SMILES: O=c1[nH]c2cc(C(F)(F)F)cc([N+](=O)[O-])c2[nH]c1=O [NO2 H CF3 H, 7-trifluoromethyl-5-nitro-1,4-dihydroquinoxaline-2,3-dione]
- Ki ([3]; Table IV, read-out: Ki): 95 nM
- ED100 ([2]; Table IV, i.v.): 40 mg/kg
- ED50 ([2]; Table IV, i.v.): 17 mg/kg
- IV peak of action ([2]; Table IV, i.v.): 30 min
- % protection after 60 min. ([2]; i.v., 40 mg/kg): 62%

SMILES: Cc1cc([N+](=O)[O-])c2[nH]c(=O)c(=O)[nH]c2c1 [NO2 H Me H, 7-Methyl-5-nitro-1,4-dihydro-2,3-quinoxalinedione]
- Ki [4]: 1200 nM

SMILES: Cc1c(F)cc2[nH]c(=O)c(=O)[nH]c2c1[N+](=O)[O-] [NO2 Me F H, 7-Fluoro-6-methyl-5-nitro-1,4-dihydro-2,3-quinoxalinedione]
- Ki [4]: 53 nM
- Ki [3]: 53 nM
- ED50 (MES) ([2]; Table III, i.v. injection): 2 mg/kg
- ED50 as an anticonvulsant in the MES experiment in mice [2]: 2 mg/kg

SMILES: CCOc1c(F)cc2[nH]c(=O)c(=O)[nH]c2c1[N+](=O)[O-] [NO2 OEt F H, 7-Fluoro-6-ethoxy-5-nitro-1,4dihydroquinoxaline-2,3-dione]
- Ki [4]: 1000 nM

SMILES: COc1c(F)cc2[nH]c(=O)c(=O)[nH]c2c1[N+](=O)[O-] [NO2 OMe F H, 7-Fluoro-6-methoxy-5-nitro-1,4-dihydroquinoxaline-2,3-dione]
- Ki [4]: 320 nM
- Ki [3]: 320 nM
- ED50 (MES) ([2]; Table III, i.v. injection): 7.5 mg/kg

SMILES: O=[N+]([O-])c1ccc2nc(O)c(O)nc2c1 [NO2, reference compound]
- Ki ([3]; Table I, read-out: Ki): 1390 nM

Further lines, with some results ahead:

- Ki ([3]; Table IV, read-out: Ki): 395 nM
SMILES: O=c1[nH]c2cc(Cl)cc(C(F)(F)F)c2[nH]c1=O [CF3 H Cl H]
- ED100 ([2]; Table IV, i.v.): 30 mg/kg
- ED50 ([2]; Table IV, i.v.): 10 mg/kg
- IV peak of action ([2]; Table IV, i.v.): 30 min
- % protection after 60 min. ([2]; i.v., 30 mg/kg): 87%

- Ki [4]: 15 nM
SMILES: N#Cc1c(Cl)c(Cl)cc2[nH]c(=O)c(=O)[nH]c12 [CN Cl Cl H, 5-Cyano-6,7-dichloro-1,4-dihydroquinoxaline-2,3-dione]

- Ki [4]: 50 nM
SMILES: N#Cc1c(Cl)c([N+](=O)[O-])cc2[nH]c(=O)c(=O)[nH]c12 [CN Cl NO2 H, 6-Chloro-5-cyano-7-nitro-1,4-dihydroquinoxaline-2,3-dione]

- Ki ([3]; Table IV, read-out: Ki): 320 nM
SMILES: O=c1[nH]c2cc(C(F)(F)F)cc(Cl)c2[nH]c1=O [Cl H CF3 H]
- ED100 ([2]; Table IV, i.v.): 20 to 25 mg/kg
- ED50 ([2]; Table IV, i.v.): 10 mg/kg
- IV peak of action ([2]; Table IV, i.v.): 15 min
- % protection after 60 min. ([2]; i.v., 20 mg/kg): 62%

- Ki [4]: 536 nM
SMILES: [N-]=[N+]=Nc1c(Cl)cc2[nH]c(=O)c(=O)[nH]c2c1Cl [Cl N3 Cl H, 6-azido-5,7-dichloro-1,4-dihydroquinoxaline-2,3-dione]

- Ki ([3]; Table III, read-out: Ki): 2970 nM
SMILES: O=c1[nH]c2cc(F)c(F)c(F)c2[nH]c1=O [F F F H, 5,6,7-Trifluoro-1,4-dihydro-2,3-quinoxalinedione]
- ED50 ([2]; iv, Table III, i.v. injection): 4 to 5 mg/kg
- ED100 ([2]; Table IV, i.v.): 15 to 20 mg/kg
- ED50 (MES) ([2]; Table IV, i.v.): 4 to 5 mg/kg
- IV peak of action ([2]; Table IV, i.v.): 2 min
- % protection after 60 min. ([2]; i.v., 10 mg/kg): 0%
- protection against MES after 60 min. ([2]; i.v., after 60 min): no more protection was observed

- Ki [4]: 71 nM
SMILES: [N-]=[N+]=Nc1c(Cl)c(Cl)cc2[nH]c(=O)c(=O)[nH]c12 [N3 Cl Cl H, 5-Azido-6,7-dichloro-1,4-dihydroquinoxaline-2,3-dione]

- Ki ([3]; Table III, read-out: Ki): 180 nM
SMILES: O=c1[nH]c2cc(F)c(Cl)c([N+](=O)[O-])c2[nH]c1=O [NO2 Cl F H, 6-Chloro-1,4-dihydro-7-fluoro-5-nitroquinoxaline-2,3-dione]
- ED50 ([2]; iv, Table III, i.v. injection): 4 to 5 mg/kg

- Ki ([3]; Table III, read-out: Ki): 70 nM
SMILES: O=c1[nH]c2cc(Cl)c(F)c([N+](=O)[O-])c2[nH]c1=O [NO2 F Cl H, 7-Chloro-6-fluoro-5-nitro-1,4-dihydroquinoxaline-2,3-dione]
- ED50 ([2]; iv, Table III, i.v. injection): 0.9 mg/kg

- Ki [4]: 280 nM
- Ki ([3]; Table III, read-out: Ki): 280 nM
SMILES: [N-]=[N+]=Nc1c(F)cc2[nH]c(=O)c(=O)[nH]c2c1[N+](=O)[O-] [NO2 N3 F H, 6-Azido-7-fluoro-5-nitro-1,4-dihydroquinoxaline-2,3-dione]
- ED50 ([2]; iv, Table III, i.v. injection): 7.5 mg/kg

- Ki [4]: 500 nM
SMILES: CCSc1c(Cl)cc2[nH]c(=O)c(=O)[nH]c2c1[N+](=O)[O-] [NO2 SEt Cl H, 7-Chloro-1,4-dihydro-6-ethylthio-5-nitroquinoxaline-2,3-dione]
